The values that follow come from patent US20230212191A1, “SPIRO-SULFONIMIDAMIDE DERIVATIVES AS INHIBITORS OF MYELOID CELL LEUKEMIA-1 (MCL-1) PROTEIN” (PRELUDE THERAPEUTICS, INCORPORATED, priority 2020, published 2023).

Molecules are shown by their SMILES.

The experiment addresses T1, MCL-1 (Homo sapiens, UniProt Q07820).
T1 construct: purchased BPS Bioscience
Briefly: Cell free Mcl-1:Bim affinity assay (fluorescence polarization competition). Conditions: 15 nM MCL-1, 5 nM FITC-Bim tracer, 1 hour at room temperature; Ki calc. from IC50 by Nikolovska-Coleska's equation; read-out: BIM_ Ki. Type of experiment: binding. The procedure:
Cell Free Mcl-1:Bim Affinity Assay (Mcl-1 Bim)
The binding affinity of each compound was measured via a fluorescence polarization competition assay, in which the compound competes for the same binding site with the ligand, and thus leads to a dose-dependent anisotropy reduction. The tracer ligand utilized was a fluorescein isothiocyanate labelled peptide (FITC-[…]) derived from Bim (GenScript).
The assay was carried out in black half-area 96-well NBS plate (Corning), containing 15 nM of MCL-1 (BPS Bioscience), 5 nM of FITC-Bim and 3-fold serial diluted test compounds in a total volume of 50 μL of assay buffer (20 mM HEPES, 50 mM NaCl, 0.002% Tween 20, 1 mM TCEP, and 1% DMSO). The reaction plate was incubated for 1 hour at room temperature. The change of anisotropy is measured with an Envision multimode plate reader (PerkinElmer) at emission wavelength 535 nm. Fluorescence polarization was calc. in mP unit and the percentage inhibition was calc. by % inhibition=100×(mPDMSO−mP)/(mPDMSO−mPPC), in which mPDMSO is the DMSO control, and mPPC is the positive control. IC50 values were determined from a 10-point dose response curve by fitting the percent inhibition against compound concentration using the GraphPad Prism software. The inhibition constant Ki was subsequently calc. according to the Nikolovska-Coleska's equation (Anal. Biochem., 2004, 332, 261),
where [I]50 is the concentration of the free inhibitor at 50% inhibition, [L]50 is the concentration of the free labeled ligand at 50% inhibition, [P]0 is the concentration of the free protein at 0% inhibition, and Kd is the dissociation constant of the protein-ligand complex.

T1 sequence (Q07820 whole entry): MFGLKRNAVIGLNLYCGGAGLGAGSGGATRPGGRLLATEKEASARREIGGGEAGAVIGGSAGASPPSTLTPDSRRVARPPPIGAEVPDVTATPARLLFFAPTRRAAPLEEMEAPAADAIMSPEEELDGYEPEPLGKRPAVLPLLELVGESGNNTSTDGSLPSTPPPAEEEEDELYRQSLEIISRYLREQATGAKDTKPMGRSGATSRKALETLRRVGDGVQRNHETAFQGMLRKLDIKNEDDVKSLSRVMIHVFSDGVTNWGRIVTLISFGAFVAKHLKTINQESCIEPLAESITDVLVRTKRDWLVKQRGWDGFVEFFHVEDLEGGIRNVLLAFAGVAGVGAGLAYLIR

In the case of `CO[C@H]1/C=C/COC(C)(C)C(=O)N=S(=O)(NC(=O)c2cnn(C)c2C)c2ccc3c(c2)N(C[C@@H]2CC[C@H]21)C[C@@]1(CCCc2cc(Cl)ccc21)CO3` (stereo partly drawn) [Example 18, N-[(3R,6R,7S,8E,22S)-7′-Chloro-7-methoxy-12,12-dimethyl-13,15-dioxospiro[11,20-dioxa-15-thia-1,14-diazatetracyclo[14.7.2.03,6.019,24]pentacosa-8,14,16,18,24-pentaene-22,4′-2,3-dihydro-1H-naphthalene]-15-yl]-1,5-dimethylpyrazole-4-carboxamide], the Ki is below 1 nM.

For `CO[C@H]1/C=C/COC(C)(C)C(=O)N=S(=O)(NC(=O)c2cc(C)n(C)n2)c2ccc3c(c2)N(C[C@@H]2CC[C@H]21)C[C@@]1(CCCc2cc(Cl)ccc21)CO3` (stereo partly drawn) [Example 19, N-[(3R,6R,7S,8E,22S)-7′-Chloro-7-methoxy-12,12-dimethyl-13,15-dioxospiro[11,20-dioxa-15-thia-1,14-diazatetracyclo[14.7.2.03,6.019,24]pentacosa-8,14,16,18,24-pentaene-22,4′-2,3-dihydro-1H-naphthalene]-15-yl]-1,5-dimethylpyrazole-3-carboxamide], the Ki is below 1 nM. Take `CO[C@H]1/C=C/COC(C)(C)C(=O)N=S(=O)(NC(=O)NC2CCOCC2)c2ccc3c(c2)N(C[C@@H]2CC[C@H]21)C[C@@]1(CCCc2cc(Cl)ccc21)CO3` (stereo partly drawn) [Example 38, 1-[(3R,6R,7S,8E,22S)-7′-Chloro-7-methoxy-12,12-dimethyl-13,15-dioxospiro[11,20-dioxa-15-thia-1,14-diazatetracyclo[14.7.2.03,6.019,24]pentacosa-8,14,16,18,24-pentaene-22,4′-2,3-dihydro-1H-naphthalene]-15-yl]-3-(oxan-4-yl)urea]: the inhibition constant Ki is above 1 nM. As to `Cc1nn(C)cc1C(=O)NS1(=O)=NC(=O)C(C)(C)OC/C=C/[C@H](OC(=O)N(C)C)[C@@H]2CC[C@H]2CN2C[C@@]3(CCCc4cc(Cl)ccc43)COc3ccc1cc32` (stereo partly drawn) [Example 51, [(3R,6R,7S,8E,22S)-7′-Chloro-15-[(1,3-dimethylpyrazole-4-carbonyl)amino]-12,12-dimethyl-13,15-dioxospiro[11,20-dioxa-15-thia-1,14-diazatetracyclo[14.7.2.03,6.019,24]pentacosa-8,14,16,18,24-pentaene-22,4′-2,3-dihydro-1H-naphthalene]-7-yl] N,N-dimethylcarbamate], the Ki was below 1 nM. Turning to `Cn1cc(C(=O)NS2(=O)=NC(=O)C(C)(C)OC/C=C/[C@H](O)[C@@H]3CC[C@H]3CN3C[C@@]4(CCCc5cc(Cl)ccc54)COc4ccc2cc43)cn1` (stereo partly drawn) [Example 52, N-[(3R,6R,7S,8E,22S)-7′-Chloro-7-hydroxy-12,12-dimethyl-13,15-dioxospiro[11,20-dioxa-15-thia-1,14-diazatetracyclo[14.7.2.03,6.019,24]pentacosa-8,14,16,18,24-pentaene-22,4′-2,3-dihydro-1H-naphthalene]-15-yl]-1-methylpyrazole-4-carboxamide], the Ki was above 1 nM.

`CN(C)C(=O)O[C@H]1/C=C/COC(C)(C)C(=O)N=S(=O)(NC(=O)c2cnn(C)c2)c2ccc3c(c2)N(C[C@@H]2CC[C@H]21)C[C@@]1(CCCc2cc(Cl)ccc21)CO3` (stereo partly drawn) [Example 53, [(3R,6R,7S,8E,22S)-7′-Chloro-12,12-dimethyl-15-[(1-methylpyrazole-4-carbonyl)amino]-13,15-dioxospiro[11,20-dioxa-15-thia-1,14-diazatetracyclo[14.7.2.03,6.019,24]pentacosa-8,14,16,18,24-pentaene-22,4′-2,3-dihydro-1H-naphthalene]-7-yl] N,N-dimethylcarbamate]: the Ki was below 1 nM.

Broadly, the Ki is a dissociation constant, usually derived from enzyme kinetics or from competition with a known ligand.
